Assay results taken from US12344600B2, “c-Myc mRNA translation modulators and uses thereof in the treatment of cancer” (Anima Biotech Inc., priority 2022, dated 2025).

System: c-Myc
Assay: c-Myc immunofluorescence assay
Format: cell-based, human
Details: A549 cells, 24 hours, anti-c-Myc immunofluorescence
Experimental: A549 human non-small cell lung carcinoma cells were treated for 24 hours with increasing compound concentration, cells were fixed and stained with a nuclei stain (DAPI) and anti-c-Myc fluorescent antibody. The c-Myc signal was quantified by image analysis, and data was exported and analyzed using TIBCO Spotfire® (TIBCO Corporation). Dose response curves were generated and fitted with logaristic regression to calculate potency (EC50 values). Potency values are presented in Table 2 for all compounds and are shown for selected compounds (FIG. 3).
A549 cells were grown in 384-wells plates (Perkin Elmer, Cat. 6057300) for 48 hours, treated with compounds and then fixed for 20 min in 4% paraformaldehyde. After that permeabilization was done using 0.1% Triton X-100 in PBS for 20 min. Primary anti-c-Myc antibody (Abcam, ab32072) staining was performed for 90 min at room temperature. Cells then were washed twice with PBS and incubated with secondary antibody (Abcam, ab150075) for 90 min at room temperature. Nuclei were stained with DAPI for 10 min and washed twice with PBS.
Cell images were taken with Operetta (Perkin Elmer, USA), a wide-field fluorescence microscope at 20× magnification. After acquisition, the images were transferred to Columbus software (Perkin-Elmer) for image analysis. In Columbus, cells were identified by their nucleus, using the “Find Nuceli” module and cytoplasm was detected based on the secondary antibody channel. Subsequently, the fluorescent signal was enumerated in the identified cell region. Then data was exported to a data analysis and visualization software, Tibco Spotfire, USA.

SMILES | Myc Efficacy (−LogEC50)
COc1ccc(-c2noc(N3CCC(C(=O)NCC4CCN(Cc5cncc(C)c5)C4)CC3)n2)cc1 (stereo not shown) [Compound 365, 1-(3-(4-methoxyphenyl)-1,2,4-oxadiazol-5-yl)-N-((1-((5-methylpyridin-3-yl)methyl)pyrrolidin-3-yl)methyl)piperidine-4-carboxamide] | ++ (++ ≥5 and <6)
COc1ccc(-c2noc(N3CCC(C(=O)NCC4(N(C)C)Cc5ccccc5C4)CC3)n2)cc1 [Compound 296, N-((2-(dimethylamino)-2,3-dihydro-1H-inden-2-yl)methyl)-1-(3-(4-methoxyphenyl)-1,2,4-oxadiazol-5-yl)piperidine-4-carboxamide] | + (+ >3 and <5)
COc1ccc(-c2noc(C3CCC(C(=O)NCC4CC(=O)N(Cc5ccccc5)C4)CC3)n2)cc1 (stereo not shown) [Compound 176, (1s,4s)-N-((1-benzyl-5-oxopyrrolidin-3-yl)methyl)-4-(3-(4-methoxyphenyl)-1,2,4-oxadiazol-5-yl)cyclohexane-1-carboxamide] | + (+ >3 and <5)
COc1ccc(-c2noc(N3CCC(C(=O)NCC4CCN(Cc5ccccc5O)C4)CC3)n2)cc1 (stereo not shown) [Compound 321, N-((1-(2-hydroxybenzyl)pyrrolidin-3-yl)methyl)-1-(3-(4-methoxyphenyl)-1,2,4-oxadiazol-5-yl)piperidine-4-carboxamide] | ++ (++ ≥5 and <6)
COc1ccc(-c2noc(N3CCC(C(=O)NCC4CCN(C[C@@H]5CCCN(C)C5)C4)CC3)n2)cc1 (stereo partly drawn) [Compound 464, 1-(3-(4-methoxyphenyl)-1,2,4-oxadiazol-5-yl)-N-((1-(((R)-1-methylpiperidin-3-yl)methyl)pyrrolidin-3-yl)methyl)piperidine-4-carboxamide] | + (+ >3 and <5)
COc1ccc(-c2noc(N3CCC(C(=O)NCC4CCN(Cc5cnccc5C)C4)CC3)n2)cc1 (stereo not shown) [Compound 329, 1-(3-(4-methoxyphenyl)-1,2,4-oxadiazol-5-yl)-N-((1-((4-methylpyridin-3-yl)methyl)pyrrolidin-3-yl)methyl)piperidine-4-carboxamide] | + (+ >3 and <5)
COc1ccc(-c2noc(N3CCN(C(=O)NCC4CCN(C)C4)CC3)n2)cc1 (stereo not shown) [Compound 206, 4-(3-(4-methoxyphenyl)-1,2,4-oxadiazol-5-yl)-N-((1-methylpyrrolidin-3-yl)methyl)piperazine-1-carboxamide] | + (+ >3 and <5)
COc1ccc(-c2noc(N3CCC(C(=O)NCC4CCN(CC5CCCOC5)C4)CC3)n2)cc1 (stereo not shown) [Compound 375, 1-(3-(4-methoxyphenyl)-1,2,4-oxadiazol-5-yl)-N-((1-((tetrahydro-2H-pyran-3-yl)methyl)pyrrolidin-3-yl)methyl)piperidine-4-carboxamide] | ++ (++ ≥5 and <6)
Cc1ccc(CN2CCC(CNC(=O)C3CCN(c4nc(-c5cccc(O)c5)no4)CC3)C2)cc1 (stereo not shown) [Compound 199, 1-(3-(3-hydroxyphenyl)-1,2,4-oxadiazol-5-yl)-N-((1-(4-methylbenzyl)pyrrolidin-3-yl)methyl)piperidine-4-carboxamide] | + (+ >3 and <5)
COc1ccc(-c2noc(N3CCC(C(=O)NCC4CCN(Cc5ccc(O)cc5)C4)CC3)n2)cc1 (stereo not shown) [Compound 339, N-((1-(4-hydroxybenzyl)pyrrolidin-3-yl)methyl)-1-(3-(4-methoxyphenyl)-1,2,4-oxadiazol-5-yl)piperidine-4-carboxamide] | ++ (++ ≥5 and <6)
COc1cccc(-c2noc(N3CCC(C(=O)NCc4cccnc4)CC3)n2)c1 [Compound 180, 1-(3-(3-methoxyphenyl)-1,2,4-oxadiazol-5-yl)-N-(pyridin-3-ylmethyl)piperidine-4-carboxamide] | + (+ >3 and <5)
COc1ccc(-c2noc(N3CCC(C(=O)NCC4CCN(C[C@@H]5CCCN5C)C4)CC3)n2)cc1 (stereo partly drawn) [Compound 369, 1-(3-(4-methoxyphenyl)-1,2,4-oxadiazol-5-yl)-N-((1-(((S)-1-methylpyrrolidin-2-yl)methyl)pyrrolidin-3-yl)methyl)piperidine-4-carboxamide] | + (+ >3 and <5)
COc1ccc(-c2noc(N3CCC(C(=O)NCC4CCN(Cc5ccc(F)cn5)C4)CC3)n2)cc1 (stereo not shown) [Compound 335, N-((1-((5-fluoropyridin-2-yl)methyl)pyrrolidin-3-yl)methyl)-1-(3-(4-methoxyphenyl)-1,2,4-oxadiazol-5-yl)piperidine-4-carboxamide] | ++ (++ ≥5 and <6)
C#CCCC1(CCOc2cc(-c3noc(N4CCC(C(=O)NCC5CCN(Cc6ccc(C)cc6)C5)CC4)n3)ccc2OC)N=N1 (stereo not shown) [Compound 344, 1-(3-(3-(2-(3-(but-3-yn-1-yl)-3H-diazirin-3-yl)ethoxy)-4-methoxyphenyl)-1,2,4-oxadiazol-5-yl)-N-((1-(4-methylbenzyl)pyrrolidin-3-yl)methyl)piperidine-4-carboxamide] | ++ (++ ≥5 and <6)
COc1ccc(-c2noc(N3CCC(C(=O)NCCCN4CCC[C@H](C)C4)CC3)n2)cc1 [Compound 141, (S)-1-(3-(4-methoxyphenyl)-1,2,4-oxadiazol-5-yl)-N-(3-(3-methylpiperidin-1-yl)propyl)piperidine-4-carboxamide] | − (− ≤3)
COc1ccc(-c2noc(N3CCC(C(=O)NCC4CCN(Cc5cc[nH]c5)C4)CC3)n2)cc1 (stereo not shown) [Compound 325, N-((1-((1H-pyrrol-3-yl)methyl)pyrrolidin-3-yl)methyl)-1-(3-(4-methoxyphenyl)-1,2,4-oxadiazol-5-yl)piperidine-4-carboxamide] | + (+ >3 and <5)
COc1ccc(-c2noc(N3CCC(C(=O)NCc4ccccc4N4CCCC4)CC3)n2)cc1 [Compound 257, 1-(3-(4-methoxyphenyl)-1,2,4-oxadiazol-5-yl)-N-(2-(pyrrolidin-1-yl)benzyl)piperidine-4-carboxamide] | + (+ >3 and <5)
COc1ccc(-c2noc(N3CCC(C(=O)NCCCc4ccccc4)CC3)n2)cc1 [Compound 129, 1-(3-(4-methoxyphenyl)-1,2,4-oxadiazol-5-yl)-N-(3-phenylpropyl)piperidine-4-carboxamide] | + (+ >3 and <5)
O=C(C1CCN(c2nc(-c3ccc(O)cc3)no2)CC1)N1CCOCC1 [Compound 182, (1-(3-(4-hydroxyphenyl)-1,2,4-oxadiazol-5-yl)piperidin-4-yl)(morpholino)methanone] | + (+ >3 and <5)
CCCN1CCC(CNC(=O)C2CCN(c3nc(-c4ccc(OC)cc4)no3)CC2)C1 (stereo not shown) [Compound 386, 1-(3-(4-methoxyphenyl)-1,2,4-oxadiazol-5-yl)-N-((1-propylpyrrolidin-3-yl)methyl)piperidine-4-carboxamide] | + (+ >3 and <5)
COc1ccc(-c2noc(N3CCC(C(=O)NCC4CCN(CC5CCO5)C4)CC3)n2)cc1 (stereo not shown) [Compound 395, 1-(3-(4-methoxyphenyl)-1,2,4-oxadiazol-5-yl)-N-((1-(oxetan-2-ylmethyl)pyrrolidin-3-yl)methyl)piperidine-4-carboxamide] | + (+ >3 and <5)
COc1ccc(-c2noc(N3CCC(C(=O)NCC4CCN(Cc5occc5C)C4)CC3)n2)cc1 (stereo not shown) [Compound 406, 1-(3-(4-methoxyphenyl)-1,2,4-oxadiazol-5-yl)-N-((1-((3-methylfuran-2-yl)methyl)pyrrolidin-3-yl)methyl)piperidine-4-carboxamide] | + (+ >3 and <5)
COc1ccc(-c2noc(N3CCC(C(=O)NCC4CCN(CCF)C4)CC3)n2)cc1 (stereo not shown) [Compound 366, N-((1-(2-fluoroethyl)pyrrolidin-3-yl)methyl)-1-(3-(4-methoxyphenyl)-1,2,4-oxadiazol-5-yl)piperidine-4-carboxamide] | + (+ >3 and <5)
COc1ccc(-c2noc(N3CCC(C(=O)NC(CO)c4cccs4)CC3)n2)cc1 (stereo not shown) [Compound 262, N-(2-hydroxy-1-(thiophen-2-yl)ethyl)-1-(3-(4-methoxyphenyl)-1,2,4-oxadiazol-5-yl)piperidine-4-carboxamide] | + (+ >3 and <5)
COc1ccc(-c2noc(N3CCC(C(=O)Nc4ccccc4Cl)CC3)n2)cc1 [Compound 224, N-(2-chlorophenyl)-1-(3-(4-methoxyphenyl)-1,2,4-oxadiazol-5-yl)piperidine-4-carboxamide] | + (+ >3 and <5)
COc1ccc(-c2coc(N3CCC(C(=O)NCc4cccnc4)CC3)n2)cc1 [Compound 201, 1-(4-(4-methoxyphenyl)oxazol-2-yl)-N-(pyridin-3-ylmethyl)piperidine-4-carboxamide] | + (+ >3 and <5)
COc1ccc(-c2noc(N3CCC(C(=O)NCC4CCN(CC(F)(F)F)C4)CC3)n2)cc1 (stereo not shown) [Compound 343, 1-(3-(4-methoxyphenyl)-1,2,4-oxadiazol-5-yl)-N-((1-(2,2,2-trifluoroethyl)pyrrolidin-3-yl)methyl)piperidine-4-carboxamide] | + (+ >3 and <5)
Cc1ccc(CN2CCC(CNC(=O)N3CCN(c4nc(-c5ccc(OCCO)cc5)no4)CC3)C2)cc1 (stereo not shown) [Compound 462, 4-(3-(4-(2-hydroxyethoxy)phenyl)-1,2,4-oxadiazol-5-yl)-N-((1-(4-methylbenzyl)pyrrolidin-3-yl)methyl)piperazine-1-carboxamide] | ++ (++ ≥5 and <6)
